The source of these data is patent publication US12319666B2, “Hydrate of dimethylaminomicheliolide fumarate and preparation method therefor and use thereof” (priority 2020, dated 2025).

Data set [1] in a line: Crystal particle size (scanning electron micrograph of crystal morphology). Type of data set: physicochemical. The settings on record: for average particle size: crystal product, SEM. As for the experimental part:
(§1) The crystal habit of the hydrate of dimethylaminomicheliolide fumarate is studied in the present disclosure, and a scanning electron micrograph thereof is shown in FIG. 3. —The crystal has a regular block crystal habit, and the surface of the particle is smooth without agglomeration, meanwhile, the crystal has a large average particle size that can reach 300 μm, a bulk density of 0.65 g/mL, and an angle of repose of 32°. The product features high bulk density and good fluidity. In comparison, the crystalline form A prepared using the natural cooling recrystallization method disclosed in patent CN103724307B has a primary particle size of 35.8 μm, a bulk density of mere 0.270 g/mL and an angle of repose of 62°, and a scanning electron micrograph thereof is shown in FIG. 4.

A short description of data set [2]: Angle of repose (fluidity). Type of data set: physicochemical. Conditions: crystal product without auxiliary materials. As for the experimental part:
as §1
The hydrate of the present disclosure has good fluidity and is more suitable for being prepared as a medicament at a later stage. It is well known that the fluidity of an active ingredient per se is generally hard to meet the filling conditions of capsules or microcapsules, and auxiliary materials such as pregelatinized starch, silica and magnesium stearate are required to meet the requirements for fluidity by the filling conditions so as to achieve the desired quality of dosage forms and production efficiency. Taking the specification of 100 mg capsules as an example, if other forms such as crystalline form A are used as active ingredients, the weight of capsule contents reaches about 310 mg after auxiliary materials are added, and thus the largest 0 # capsule shell must be used, and larger specification such as capsules containing 200 mg of active ingredients cannot be prepared.

Data set [3] can be described thus: Bulk density of crystal product. Type of data set: physicochemical. The procedure:
as §1

Data set [4] can be described thus: Solubility in solvents (qualitative). Type of data set: physicochemical.
The conditions of data set [5]: background statement; cited from earlier work.
For data set [6] the following is noted: cited from earlier work.
Data set [7] is described as follows: Stability of the hydrate at 45° C., humidity 75%, 30 days (XRD and purity analysis). Type of data set: physicochemical. As for the experimental part: The stability of the hydrate of dimethylaminomicheliolide fumarate is investigated in the present disclosure. The […] crystal compound product is uniformly distributed in an open Petri dish. The temperature is controlled at 45° C., the humidity is 75%, and the sample thickness is less than 5 mm. The Petri dish is hermetically placed in a drier for 30 days. Then the samples placed for 7, 14 and 30 days were examined by XRD and compared with the results on day 0. […] Meanwhile, the samples at days 7, 14 and 30 are subjected to purity analysis. […] By combining the XRD patterns and the results of the purity analysis, the hydrate of dimethylaminomicheliolide fumarate is shown to have good stability.

`CC1=C2CC[C@@](C)(O)[C@@H]2[C@H]2OC(=O)[C@@H](CN(C)C)[C@@H]2CC1.O=C(O)/C=C/C(=O)O` [Example 8, hydrate of dimethylaminomicheliolide fumarate]: in data set [1], the average particle size is not above 300 μm. This compound had an angle of repose in data set [2] of 32.1 °. In addition, in data set [3], the bulk density turned out to be 0.654 g/mL.

On to `CC1=C2CC[C@@](C)(O)[C@@H]2[C@H]2OC(=O)[C@@H](CN(C)C)[C@@H]2CC1.O=C(O)/C=C/C(=O)O` [Dimethylaminomicheliolide fumarate], for which the solubility entry was “almost insoluble” in data set [4] (in cyclohexane, n-hexane, n-heptane, dichloromethane, isopropyl ether and toluene); “soluble” in data set [4] (in water, methanol, ethanol, tetrahydrofuran, 1,4-dioxane, acetone, acetonitrile and isopropyl acetate).

In turn, `CC1=C2CC[C@@](C)(O)[C@@H]2[C@H]2OC(=O)[C@@H](CN(C)C)[C@@H]2CC1.O=C(O)/C=C/C(=O)O` [Example 7, hydrate of dimethylaminomicheliolide fumarate] returned an average particle size in data set [1] not above 300 μm. In addition, the angle of repose in data set [2] is reported as 32 °. The bulk density in data set [3] is recorded as 0.65 g/mL.

For the compound `CC1=C2CC[C@@](C)(O)[C@@H]2[C@H]2OC(=O)[C@@H](CN(C)C)[C@@H]2CC1` [DMAMCL, dimethylaminomicheliolide], in data set [5], the solubility in water result is listed as “improved solubility in water to a certain degree relative to MCL”. Moreover, the “stability on long-term storage” value in data set [6] (background statement) was “unstable”.

The compound `CC1=C2CC[C@@](C)(O)[C@@H]2[C@H]2OC(=O)[C@@H](CN(C)C)[C@@H]2CC1.O=C(O)/C=C/C(=O)O` [Example 2, hydrate of dimethylaminomicheliolide fumarate] registered an average particle size in data set [1] not above 300 μm. This compound had an angle of repose in data set [2] of 32 °. The bulk density in data set [3] amounted to 0.655 g/mL.

`CC1=C2CC[C@@](C)(O)[C@@H]2[C@H]2OC(=O)[C@@H](CN(C)C)[C@@H]2CC1.O=C(O)/C=C/C(=O)O` [Example 1, hydrate of dimethylaminomicheliolide fumarate] came in with an average particle size in data set [1] not above 300 μm. In data set [2], this compound displayed an angle of repose of 32.5 °. Besides, the bulk density in data set [3] stood at 0.646 g/mL.

With `CC1=C2CC[C@@](C)(O)[C@@H]2[C@H]2OC(=O)[C@@H](CN(C)C)[C@@H]2CC1.O=C(O)/C=C/C(=O)O` [Example 4, hydrate of dimethylaminomicheliolide fumarate], the average particle size in data set [1] is on record as not above 300 μm. Besides, the angle of repose in data set [2] was determined as 32.2 °. Besides, the bulk density in data set [3] turned out to be 0.659 g/mL.

`CC1=C2CC[C@@](C)(O)[C@@H]2[C@H]2OC(=O)[C@@H](CN(C)C)[C@@H]2CC1.O=C(O)/C=C/C(=O)O` [hydrate of dimethylaminomicheliolide fumarate]: the entries for the “change in purity vs day 0” value in data set [7] (day 7), in data set [7] (day 14) and in data set [7] (day 30) were 0.015%, 0.027% and 0.046%, respectively. In addition, the “change in the XRD pattern” value in data set [7] (days 7, 14 and 30 vs day 0) is “no significant change”. In data set [1], the average particle size is reported as not above 300 μm. The angle of repose in data set [2] and in data set [2] (listed as hydrate of dimethylaminomicheliolide fumarate in the crystalline form D) was 32 ° each time. This compound also registered a bulk density in data set [3] of 0.65 g/mL.

`CC1=C2CC[C@@](C)(O)[C@@H]2[C@H]2OC(=O)[C@@H](CN(C)C)[C@@H]2CC1.O=C(O)/C=C/C(=O)O` [Example 9, hydrate of dimethylaminomicheliolide fumarate] gave an average particle size in data set [1] not above 300 μm. The compound also gave an angle of repose in data set [2] of 32.3 °. The same compound showed a bulk density in data set [3] of 0.645 g/mL.

Regarding `CC1=C2CC[C@@](C)(O)[C@@H]2[C@H]2OC(=O)[C@@H](CN(C)C)[C@@H]2CC1.O=C(O)/C=C/C(=O)O` [Example 6, hydrate of dimethylaminomicheliolide fumarate], the average particle size in data set [1] was not above 300 μm. Also, the angle of repose in data set [2] was determined as 32.3 °. In addition, the bulk density in data set [3] worked out at 0.65 g/mL.

In data set [1], `CC1=C2CC[C@@](C)(O)[C@@H]2[C@H]2OC(=O)[C@@H](CN(C)C)[C@@H]2CC1.O=C(O)/C=C/C(=O)O` [Example 3, hydrate of dimethylaminomicheliolide fumarate] came in with an average particle size not above 300 μm. In addition, the angle of repose in data set [2] was 32 °. Moreover, the bulk density in data set [3] is 0.65 g/mL.

For `CC1=C2CC[C@@](C)(O)[C@@H]2[C@H]2OC(=O)[C@@H](CN(C)C)[C@@H]2CC1.O=C(O)/C=C/C(=O)O` [Example 5, hydrate of dimethylaminomicheliolide fumarate], in data set [1], the average particle size is given as not above 300 μm. In data set [2], this compound displayed an angle of repose of 32 °. This compound also yielded a bulk density in data set [3] of 0.645 g/mL.

Take `C=C1C(=O)O[C@H]2[C@H]1CCC(C)=C1CC[C@@](C)(O)[C@@H]12` [micheliolide]: the solubility in water result in data set [5] was “poor solubility in water”.

Turning to `CC1=C2CC[C@@](C)(O)[C@@H]2[C@H]2OC(=O)[C@@H](CN(C)C)[C@@H]2CC1.O=C(O)/C=C/C(=O)O` [crystalline form A, dimethylaminomicheliolide fumarate], the primary particle size in data set [1] (form A from natural cooling recrystallization, method of CN103724307B) amounted to 35.8 μm. Also, in data set [2], the angle of repose stood at 62 °. For the same compound, in data set [6] (prone to transformation), the “stability of the crystalline form” value is reported as “poor stability”. The bulk density in data set [3] was 0.270 g/mL.
